{"source": "patent US9012635B2", "about": "“Pyridone amides and analogs exhibiting anti-cancer and anti-proliferative activities” (Deciphera Pharmaceuticals, LLC, priority 2013, dated 2015)", "key": {"[1]": {"target": "T1, Phospho-MET in EBC-1 cells (Homo sapiens, UniProt P08581)", "T1 construct": "endogenous in cells; host or cells: EBC-1 (JCRB0820)", "T1 sequence (P08581 25-1390)": "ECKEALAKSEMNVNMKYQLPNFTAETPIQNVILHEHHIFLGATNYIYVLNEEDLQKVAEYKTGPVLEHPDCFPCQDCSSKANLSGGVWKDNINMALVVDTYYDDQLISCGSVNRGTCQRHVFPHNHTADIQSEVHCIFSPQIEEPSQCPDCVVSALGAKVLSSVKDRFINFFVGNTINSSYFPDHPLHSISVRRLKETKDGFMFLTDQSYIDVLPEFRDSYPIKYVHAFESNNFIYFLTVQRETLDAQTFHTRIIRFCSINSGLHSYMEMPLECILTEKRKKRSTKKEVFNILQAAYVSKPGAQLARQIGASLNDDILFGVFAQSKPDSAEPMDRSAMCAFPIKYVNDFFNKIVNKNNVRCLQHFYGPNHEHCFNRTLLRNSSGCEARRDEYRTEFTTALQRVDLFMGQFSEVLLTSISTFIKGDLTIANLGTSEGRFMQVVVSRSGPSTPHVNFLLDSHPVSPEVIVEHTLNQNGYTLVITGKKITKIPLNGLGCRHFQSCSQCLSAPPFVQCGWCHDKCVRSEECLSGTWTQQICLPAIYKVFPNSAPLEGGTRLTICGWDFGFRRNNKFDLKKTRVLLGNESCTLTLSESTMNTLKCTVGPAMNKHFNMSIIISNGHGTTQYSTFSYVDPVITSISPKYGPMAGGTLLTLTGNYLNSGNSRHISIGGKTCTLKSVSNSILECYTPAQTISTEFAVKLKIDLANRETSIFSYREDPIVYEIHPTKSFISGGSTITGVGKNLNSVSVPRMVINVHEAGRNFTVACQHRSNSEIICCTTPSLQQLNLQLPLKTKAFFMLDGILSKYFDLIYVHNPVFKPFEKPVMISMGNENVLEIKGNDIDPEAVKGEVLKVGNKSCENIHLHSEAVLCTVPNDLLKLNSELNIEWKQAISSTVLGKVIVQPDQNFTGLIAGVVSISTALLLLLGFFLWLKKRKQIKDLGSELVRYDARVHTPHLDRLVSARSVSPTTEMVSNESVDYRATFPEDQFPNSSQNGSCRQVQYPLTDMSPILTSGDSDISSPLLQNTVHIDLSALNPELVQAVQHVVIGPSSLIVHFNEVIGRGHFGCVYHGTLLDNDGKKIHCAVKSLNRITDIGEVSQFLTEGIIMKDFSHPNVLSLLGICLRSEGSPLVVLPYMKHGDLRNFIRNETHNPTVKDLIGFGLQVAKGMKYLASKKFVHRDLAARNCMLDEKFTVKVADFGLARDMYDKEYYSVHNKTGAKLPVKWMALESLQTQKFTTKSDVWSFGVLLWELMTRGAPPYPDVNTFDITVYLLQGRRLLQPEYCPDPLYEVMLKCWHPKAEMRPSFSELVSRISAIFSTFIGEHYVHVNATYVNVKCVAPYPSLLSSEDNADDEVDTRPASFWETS", "assay": "EBC-1 phospho-MET ELISA", "assay_type": "cell-based", "conditions": "6 h compound, 40 ng/mL HGF 10 min, read-out: EBC1 pMET", "description": "(§1) EBC-1 cells (catalog #JCRB0820) were obtained from the Japan Health Science Research Resources Bank, Osaka, Japan. Briefly, cells were grown in DMEM supplemented with 10% characterized fetal bovine serum (Invitrogen, Carlsbad, Calif.) at 37° C., 5% CO2, 95% humidity. Cells were allowed to expand until reaching 70-95% confluency at which point they were subcultured or harvested for assay use.\nFifteen thousand cells in DMEM supplemented with 0.5% characterized fetal bovine serum (FBS; Invitrogen, Carlsbad, Calif.) were added per well in a 96-well black clear bottom plate (Corning, Corning, N.Y.). Cells were then incubated overnight at 37 degrees Celsius, 5% CO2, 95% humidity. A serial dilution of test compound was dispensed into another 96-well black clear bottom plate (Corning, Corning, N.Y.) containing DMEM supplemented with 0.5% FBS. Diluted compound was then added to plates containing cells and incubated for 6 hours at 37 degrees Celsius, 5% CO2, 95% humidity. Cells were stimulated with 40 ng/mL HGF (R&D Systems, Minneapolis, Minn.) for 10 minutes, and then lysed. Phospho-MET in cell lysates was detected using the DuoSet IC Human Phospho-HGF R/c-MET ELISA (R&D Systems, Minneapolis, Minn.). Data was analyzed using Prism software (Graphpad, San Diego, Calif.) to calculate IC50 values."}, "A549 cells": {"system": "A549 cells", "assay": "A549 cell migration assay (HGF-stimulated)", "assay_type": "cell-based", "conditions": "Homo sapiens, 40 ng/mL HGF, 48 h migration", "description": "as §1, with “A549” for “EBC-1”, “# CCL-185)” for “#JCRB0820)”, “American Type Culture Collection (ATCC, Manassas, Va.).” for “Japan Health Science Research Resources Bank, Osaka, Japan.”, “37 degrees Celsius,” for “37° C.,”\nForty thousand cells in DMEM supplemented with 10% characterized fetal bovine serum (FBS; Invitrogen, Carlsbad, Calif.) were added per well in a 96-well black clear bottom Oris Collagen-Coated cell migration plate containing cell seeding stoppers (Platypus Technologies, Madison, Wis.). Cells were then incubated overnight at 37 degrees Celsius, 5% CO2, 95% humidity. Cell seeding stoppers were removed creating an area for cell migration in the center of each well of the plate. Media was replaced with DMEM supplemented with 0.5% FBS. […] A plate mask (Platypus Technologies, Madison, Wis.) that obscures each well except for the area for cell migration in the center of the well was attached to the bottom of the migration plate and fluorescence was detected using a fluorescent plate reader. Data was analyzed using Prism software (Graphpad, San Diego, Calif.) to calculate IC50 values."}, "[2]": {"system": "MET activity in MKN-45 xenograft tumors", "assay": "pMET inhibition in a MKN-45 xenograft pharmacodynamic model", "assay_type": "in vivo", "conditions": "nude mice, single oral 10 mg/kg dose, out to 8 h post dose", "description": "To examine the in vivo modulation of MET activity by compounds of formula I, MKN-45 xenograft tumors were excised at varying time points following a single oral dose. Briefly, MKN-45 cells were obtained from the Japan Health Sciences Foundation and expanded in RPMI medium which was supplemented with 20% FBS, 1% PSG (Penicillin/Streptomycin/Glutamine). The growth environment was maintained in an incubator with a 5% CO2 atmosphere at 37° C. Cells were harvested and re-suspended using 50% serum-free media and 50% Matrigel® to generate a stock concentration of 5×10^6 cells/mL.\nSeven to 8 week old female Harlan nude mice (Hsd:AthymicNude-Fox1nu) were injected with 200 μL of cell suspension subcutaneously, just below the right axilla. All procedures carried out in this experiment were conducted in compliance with all the laws, regulations and guidelines of the National Institutes of Health (NIH). Treatment began when the mean tumor burden was approximately 300 mg. All mice were dosed with test compound by oral gavage. Plasma and tumor samples were collected from three mice at each timepoint 2, 4, 6, 8, 12, 18, and 24 hours after dosing. […] Plasma levels of MET inhibitors were determined by mass spectrometer analysis."}, "[3]": {"system": "MKN-45 human gastric adenocarcinoma xenograft", "assay": "MKN-45 xenograft study", "assay_type": "in vivo", "conditions": "nude mice, oral gavage, after 14 days", "description": "To evaluate the in vivo anti-cancer activity compounds of formula I, a MKN-45 human gastric adenocarcinoma xenograft was employed. Briefly, MKN-45 cells were obtained from the Japan Health Sciences Foundation and expanded in RPMI medium which was supplemented with 20% FBS, 1% PSG. The growth environment was maintained in an incubator with a 5% CO2 atmosphere at 37° C. Cells were harvested and re-suspended using 50% serum-free media and 50% Matrigel® to generate a stock concentration of 5×10^6 cells/mL.\nSeven to 8 week old female Harlan nude mice (Hsd:AthymicNude-Fox1nu) were injected with 200 μL of cell suspension subcutaneously, just below the right axilla. All procedures carried out in this experiment were conducted in compliance with all the laws, regulations and guidelines of the National Institutes of Health (NIH). Treatment began when the mean tumor burden was approximately 150 mg. All mice were dosed with test compound by oral gavage. Body weights and tumor measurements were recorded three times weekly. Tumor burden (mg) was estimated from caliper measurements by the formula for the volume of a prolate ellipsoid assuming unit density as: Tumor burden (mg)=(L×W2)/2, where L and W were the respective orthogonal tumor length and width measurements (mm). […]"}}, "note": "Where a name gives a salt, the structure may show the parent alone.", "data": [{"compound": "Cn1cc(-c2cc(Oc3cc(F)c(NC(=O)c4cccn(-c5ccc(F)cc5)c4=O)cc3F)ccn2)cn1", "note": "[Example 1, N-(2,5-difluoro-4-((2-(1-methyl-1H-pyrazol-4-yl)pyridin-4-yl)oxy)phenyl)-1-(4-fluorophenyl)-2-oxo-1,2-dihydropyridine-3-carboxamide]", "values": [{"measurement": "IC50", "setting": "[1]", "result": "≤ 0.1", "unit": "µM"}, {"measurement": "IC50", "setting": "A549 cells", "result": "0.1 to 1", "unit": "µM"}]}, {"compound": "O=C(Nc1cc(F)c(Oc2ccnc(-c3cnn(CCO)c3)c2)cc1F)c1cccn(-c2ccc(F)cc2)c1=O", "note": "[Example 3, N-(2,5-difluoro-4-((2-(1-(2-hydroxyethyl)-1H-pyrazol-4-yl)pyridin-4-yl)oxy)phenyl)-1-(4-fluorophenyl)-2-oxo-1,2-dihydropyridine-3-carboxamide hydrochloride]", "values": [{"measurement": "IC50", "setting": "[1]", "result": "≤ 0.1", "unit": "µM"}]}, {"compound": "CCOc1ccn(-c2ccc(F)cc2)c(=O)c1C(=O)Nc1cc(F)c(Oc2ccnc(-c3cnn(C)c3)c2)cc1F", "note": "[Example 2, N-(2,5-difluoro-4-(2-(1-methyl-1H-pyrazol-4-yl)pyridin-4-yloxy)phenyl)-4-ethoxy-1-(4-fluorophenyl)-2-oxo-1,2-dihydropyridine-3-carboxamide]", "values": [{"measurement": "IC50", "setting": "[1]", "result": "≤ 0.1", "unit": "µM"}, {"measurement": "inhibition of cFOS mRNA levels", "setting": "[2]", "result": 80, "unit": "%"}, {"measurement": "IC50", "setting": "A549 cells", "result": "≤ 0.1", "unit": "µM"}, {"measurement": "% T/C", "setting": "[3]; 10 mg/kg twice daily", "result": 19, "unit": "% T/C"}, {"measurement": "% T/C", "setting": "[3]; 30 mg/kg twice daily", "result": 12, "unit": "% T/C"}]}]}
